Tested on: patients after acute myocardial infarction
Test: Angina pectoris score, total and single (frequency/attack times, duration, pain degree, dose of nitroglycerin), same clinical trial
Type: in vivo, human
Design: total angina pectoris score, Md / total angina pectoris score, Mean: scale not given here
Details: for attack times score, patients (%): Baseline; for distribution of total angina pectoris score: Medium, number of patients / distribution of total angina pectoris score: Medium, percentage of patients / distribution of total angina pectoris score: Mild, number of patients / distribution of total angina pectoris score: Mild, percentage of patients / distribution of total angina pectoris score: Severe, number of patients / distribution of total angina pectoris score: Severe, percentage of patients / patients with dose of nitroglycerin score 0 (%) / patients with dose of nitroglycerin score 1 (%) / patients with dose of nitroglycerin score 2 (%) / patients with dose of nitroglycerin score 4 (%) / patients with dose of nitroglycerin score 6 (%) / total angina pectoris score, Md / total angina pectoris score, Mean / change of total angina pectoris score, Md / change of total angina pectoris score, Mean / patients with change of dose of nitroglycerin score 0 (%) / patients with change of dose of nitroglycerin score 1 (%) / patients with change of dose of nitroglycerin score 2 (%) / patients with change of dose of nitroglycerin score 4 (%) / patients with change of dose of nitroglycerin score 6 (%) / patients with change of dose of nitroglycerin score −1 (%) / patients with change of dose of nitroglycerin score −2 (%) / patients with change of dose of nitroglycerin score −3 (%) / patients with change of dose of nitroglycerin score −4 (%) / patients with change of dose of nitroglycerin score −6 (%) / patients with change of dose of nitroglycerin score −5 (%): FAS
Source text: In order to better understand the present invention, a multi-center, randomized, double-blind, double-dummy and positive drug controlled trial had been conducted. 3508 patients who were in accordance with the diagnostic standards of AMI for 28 days to 2 years and differentiated as Qi deficiency and blood stagnation syndrome by TCM were studied. 0.5 g Chinese medicine composition prepared by the method of EXAMPLE 1 (Coded as QSYQ) was administrated half an hour after meal, 3 times per day. Aspirine was used as a positive drug. The patients were treated for 1 year and observed for 6 months.
They included the overall survival time, angina pectoris score, TCM symptom score and life quality score, where angina pectoris score, TCM symptom score and life quality score were evaluated at randomization, in 1st, 3rd, 6th, 9th, 12th month after treatment and 18th month after follow-up.
(§1) Total angina pectoris score was described on every observation period and the change of observation in comparison with baseline. T-test or Wilcoxon rank sum test were used for inter-group comparison. Grade of total score was evaluated on every observation and Wilcoxon rank sum test was used for inter-group comparison. T-test and Pairing signed rank sum test were used for analyzing the change of total score on every observation between groups in comparison with the baseline.
(§2) Single angina pectoris score was depicted on every observation time-point and the change of observation in comparison with baseline. Wilcoxon rank sum test was used for inter-group comparison. Pairing signed rank sum test was used for analyzing the change of total score on every observation between groups in comparison with the baseline.
as §1, with “comparison with the baseline. T-test” for “comparison with baseline. T-test”
as §2, with “described” for “depicted”

[1] = 1 month after treatment-baseline
[2] = 3 months after treatment-baseline
[3] = 6 months after treatment-baseline
[4] = 9 months after treatment-baseline

CC(=O)Oc1ccccc1C(=O)O [Control group, aspirine]
attack times score, patients (%) (score 1, PP): (8.95%)
attack times score, patients (%) (score 2, FAS): (53.24%)
attack times score, patients (%) (score 2, PP): (53.51%)
attack times score, patients (%) (score 4, FAS): (9.12%)
attack times score, patients (%) (score 4, PP): (9.55%)
attack times score, patients (%) (score 6, FAS): (1.03%)
attack times score, patients (%) (score 6, PP): (1.00%)
distribution of total angina pectoris score: Medium, number of patients (1 month after treatment): 484
distribution of total angina pectoris score: Medium, percentage of patients (1 month after treatment): (28.24%)
distribution of total angina pectoris score: Mild, number of patients (1 month after treatment): 1203
distribution of total angina pectoris score: Mild, percentage of patients (1 month after treatment): (70.19%)
distribution of total angina pectoris score: Severe, number of patients (1 month after treatment): 27
distribution of total angina pectoris score: Severe, percentage of patients (1 month after treatment): (1.58%)
patients with dose of nitroglycerin score 0 (%) (1 month after treatment): (59.78%)
patients with dose of nitroglycerin score 1 (%) (1 month after treatment): (0.29%)
patients with dose of nitroglycerin score 2 (%) (1 month after treatment): (28.94%)
patients with dose of nitroglycerin score 4 (%) (1 month after treatment): (7.65%)
patients with dose of nitroglycerin score 6 (%) (1 month after treatment): (3.34%)
total angina pectoris score, Md (1 month after treatment): 6.00
total angina pectoris score, Mean (1 month after treatment): 5.92
change of total angina pectoris score, Md [1]: 0.00
change of total angina pectoris score, Mean [1]: −1.19
patients with change of dose of nitroglycerin score 0 (%) [1]: (80.53%)
patients with change of dose of nitroglycerin score 1 (%) [1]: (0.17%)
patients with change of dose of nitroglycerin score 2 (%) [1]: (3.92%)
patients with change of dose of nitroglycerin score 4 (%) [1]: (1.04%)
patients with change of dose of nitroglycerin score 6 (%) [1]: (0.23%)
patients with change of dose of nitroglycerin score −1 (%) [1]: (0.00%)
patients with change of dose of nitroglycerin score −2 (%) [1]: (11.41%)
patients with change of dose of nitroglycerin score −3 (%) [1]: (0.06%)
patients with change of dose of nitroglycerin score −4 (%) [1]: (2.13%)
patients with change of dose of nitroglycerin score −6 (%) [1]: (0.52%)
distribution of total angina pectoris score: Medium, number of patients (3 months after treatment): 397
distribution of total angina pectoris score: Medium, percentage of patients (3 months after treatment): (23.97%)
distribution of total angina pectoris score: Mild, number of patients (3 months after treatment): 1241
distribution of total angina pectoris score: Mild, percentage of patients (3 months after treatment): (74.94%)
distribution of total angina pectoris score: Severe, number of patients (3 months after treatment): 18
distribution of total angina pectoris score: Severe, percentage of patients (3 months after treatment): (1.09%)
patients with dose of nitroglycerin score 0 (%) (3 months after treatment): (61.98%)
patients with dose of nitroglycerin score 1 (%) (3 months after treatment): (0.63%)
patients with dose of nitroglycerin score 2 (%) (3 months after treatment): (29.58%)
patients with dose of nitroglycerin score 4 (%) (3 months after treatment): (5.23%)
patients with dose of nitroglycerin score 6 (%) (3 months after treatment): (2.58%)
total angina pectoris score, Md (3 months after treatment): 6.00
total angina pectoris score, Mean (3 months after treatment): 5.38
change of total angina pectoris score, Md [2]: 0.00
change of total angina pectoris score, Mean [2]: −1.73
patients with change of dose of nitroglycerin score 0 (%) [2]: (75.23%)
patients with change of dose of nitroglycerin score 1 (%) [2]: (0.17%)
patients with change of dose of nitroglycerin score 2 (%) [2]: (4.44%)
patients with change of dose of nitroglycerin score 4 (%) [2]: (0.69%)
patients with change of dose of nitroglycerin score 6 (%) [2]: (0.29%)
patients with change of dose of nitroglycerin score −1 (%) [2]: (0.29%)
patients with change of dose of nitroglycerin score −2 (%) [2]: (15.15%)
patients with change of dose of nitroglycerin score −4 (%) [2]: (2.94%)
patients with change of dose of nitroglycerin score −5 (%) [2]: (0.12%)
patients with change of dose of nitroglycerin score −6 (%) [2]: (0.69%)
distribution of total angina pectoris score: Medium, number of patients (6 months after treatment): 309
distribution of total angina pectoris score: Medium, percentage of patients (6 months after treatment): (19.43%)
distribution of total angina pectoris score: Mild, number of patients (6 months after treatment): 1273
distribution of total angina pectoris score: Mild, percentage of patients (6 months after treatment): (80.06%)
distribution of total angina pectoris score: Severe, number of patients (6 months after treatment): 8
distribution of total angina pectoris score: Severe, percentage of patients (6 months after treatment): (0.50%)
patients with dose of nitroglycerin score 0 (%) (6 months after treatment): (65.38%)
patients with dose of nitroglycerin score 1 (%) (6 months after treatment): (0.86%)
patients with dose of nitroglycerin score 2 (%) (6 months after treatment): (28.24%)
patients with dose of nitroglycerin score 4 (%) (6 months after treatment): (3.62%)
patients with dose of nitroglycerin score 6 (%) (6 months after treatment): (1.89%)
total angina pectoris score, Md (6 months after treatment): 5.00
total angina pectoris score, Mean (6 months after treatment): 4.78
change of total angina pectoris score, Md [3]: 0.00
change of total angina pectoris score, Mean [3]: −2.34
patients with change of dose of nitroglycerin score 0 (%) [3]: (70.05%)
patients with change of dose of nitroglycerin score 1 (%) [3]: (0.40%)
patients with change of dose of nitroglycerin score 2 (%) [3]: (4.84%)
patients with change of dose of nitroglycerin score 4 (%) [3]: (0.40%)
patients with change of dose of nitroglycerin score 6 (%) [3]: (0.35%)
patients with change of dose of nitroglycerin score −1 (%) [3]: (0.23%)
patients with change of dose of nitroglycerin score −2 (%) [3]: (18.49%)
patients with change of dose of nitroglycerin score −3 (%) [3]: (0.00%)
patients with change of dose of nitroglycerin score −4 (%) [3]: (4.03%)
patients with change of dose of nitroglycerin score −5 (%) [3]: (0.17%)
patients with change of dose of nitroglycerin score −6 (%) [3]: (1.04%)
distribution of total angina pectoris score: Medium, number of patients (9 months after treatment): 244
distribution of total angina pectoris score: Medium, percentage of patients (9 months after treatment): (15.97%)
distribution of total angina pectoris score: Mild, number of patients (9 months after treatment): 1280
distribution of total angina pectoris score: Mild, percentage of patients (9 months after treatment): (83.77%)
distribution of total angina pectoris score: Severe, number of patients (9 months after treatment): 4
distribution of total angina pectoris score: Severe, percentage of patients (9 months after treatment): (0.26%)
patients with dose of nitroglycerin score 0 (%) (9 months after treatment): (67.11%)
patients with dose of nitroglycerin score 1 (%) (9 months after treatment): (1.03%)
patients with dose of nitroglycerin score 2 (%) (9 months after treatment): (27.73%)
patients with dose of nitroglycerin score 4 (%) (9 months after treatment): (2.41%)
patients with dose of nitroglycerin score 6 (%) (9 months after treatment): (1.72%)
total angina pectoris score, Md (9 months after treatment): 5.00
total angina pectoris score, Mean (9 months after treatment): 4.39
change of total angina pectoris score, Md [4]: −1.00
change of total angina pectoris score, Mean [4]: −2.72
patients with change of dose of nitroglycerin score 0 (%) [4]: (67.45%)
patients with change of dose of nitroglycerin score 1 (%) [4]: (0.35%)
patients with change of dose of nitroglycerin score 2 (%) [4]: (4.84%)
patients with change of dose of nitroglycerin score 4 (%) [4]: (0.46%)
patients with change of dose of nitroglycerin score 6 (%) [4]: (0.35%)
patients with change of dose of nitroglycerin score −1 (%) [4]: (0.46%)
patients with change of dose of nitroglycerin score −2 (%) [4]: (20.16%)
patients with change of dose of nitroglycerin score −3 (%) [4]: (0.12%)
patients with change of dose of nitroglycerin score −4 (%) [4]: (4.26%)
patients with change of dose of nitroglycerin score −5 (%) [4]: (0.17%)
patients with change of dose of nitroglycerin score −6 (%) [4]: (1.38%)
distribution of total angina pectoris score: Medium, number of patients (12 months after treatment): 176
distribution of total angina pectoris score: Medium, percentage of patients (12 months after treatment): (11.96%)
distribution of total angina pectoris score: Mild, number of patients (12 months after treatment): 1294
distribution of total angina pectoris score: Mild, percentage of patients (12 months after treatment): (87.91%)
distribution of total angina pectoris score: Severe, number of patients (12 months after treatment): 2
distribution of total angina pectoris score: Severe, percentage of patients (12 months after treatment): (0.14%)
patients with dose of nitroglycerin score 0 (%) (12 months after treatment): (71.58%)
patients with dose of nitroglycerin score 1 (%) (12 months after treatment): (1.09%)
patients with dose of nitroglycerin score 2 (%) (12 months after treatment): (23.59%)
patients with dose of nitroglycerin score 4 (%) (12 months after treatment): (2.07%)
patients with dose of nitroglycerin score 6 (%) (12 months after treatment): (1.66%)
total angina pectoris score, Md (12 months after treatment): 0.00
total angina pectoris score, Mean (12 months after treatment): 3.83
